Data taken from article PMC7156458, “Synthetic biology based construction of biological activity-related library of fungal decalin-containing diterpenoid pyrones” (Nature Communications, 2020).

Biological target: Aβ42 (Homo sapiens, UniProt P05067)
Assay: Th-T (thioflavin-T) assay of Aβ42 aggregation
Type: biochemical
Conditions: for Th-T fluorescence of Aβ42 (sheet Fig. 7a), mean of three wells: head suffix _50 (concentration 50); for Th-T assay plate reading, mean of three wells (Supplementary Fig. 47): source data, Ab alone and No Ab as controls; for Th-T fluorescence, mean of three wells: Supplementary Fig. 47 source data

Sequence of Aβ42 (P05067 672-713): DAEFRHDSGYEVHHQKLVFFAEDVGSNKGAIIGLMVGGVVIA

`C=C1CCC2C(C)(CCC=C(C)C)C(O)CCC2(C)C1Cc1c(OC)oc(CO)c(C)c1=O` (stereo not drawn) [Compound 12] was tested, and the “Th-T fluorescence of Aβ42 (sheet Fig. 7a), mean of three wells” value (“Th-T fluorescence of Aβ42” below) (reading M73) was 1.414, the “Th-T fluorescence of Aβ42” value (reading M74) was 1.457 and the “Th-T fluorescence of Aβ42” value (reading M75) was 1.421. The “Th-T fluorescence of Aβ42” value (reading M76) was 1.415, the “Th-T fluorescence of Aβ42” value (reading M77) was 1.436 and the “Th-T fluorescence of Aβ42” value (reading M78) was 1.437. The “Th-T fluorescence of Aβ42” value (reading M79) was 1.425, the “Th-T fluorescence of Aβ42” value (reading M80) was 1.423 and the “Th-T fluorescence of Aβ42” value (reading M81) was 1.42. The “Th-T fluorescence of Aβ42” value (reading M82) was 1.419, the “Th-T fluorescence of Aβ42” value (reading M83) was 1.439 and the “Th-T fluorescence of Aβ42” value (reading M84) was 1.415. For the same compound, the “Th-T assay plate reading, mean of three wells (Supplementary Fig. 47)” value (“Th-T assay plate reading, mean” for short) (measurement M1) was 0.2937, the “Th-T assay plate reading, mean” value (measurement M2) was 0.2498 and the “Th-T assay plate reading, mean” value (measurement M3) was 0.2612. The “Th-T assay plate reading, mean” value (measurement M4) was 0.2666, the “Th-T assay plate reading, mean” value (measurement M5) was 0.2891 and the “Th-T assay plate reading, mean” value (measurement M6) was 0.324. The “Th-T assay plate reading, mean” value (measurement M7) was 0.6238, the “Th-T assay plate reading, mean” value (measurement M8) was 1.342 and the “Th-T assay plate reading, mean” value (measurement M9) was 1.95. For the same compound, the “Th-T assay plate reading, mean” value (measurement M10) was 2.214, the “Th-T assay plate reading, mean” value (measurement M11) was 2.313 and the “Th-T assay plate reading, mean” value (measurement M12) was 2.311. The “Th-T assay plate reading, mean” value (measurement M13) was 2.302, the “Th-T assay plate reading, mean” value (measurement M14) was 2.328 and the “Th-T assay plate reading, mean” value (measurement M15) was 2.358. The “Th-T assay plate reading, mean” value (measurement M16) was 2.3929, the “Th-T fluorescence, mean of three wells (Fig. 7a)” value (“Th-T fluorescence … (Fig. 7a)” for short) (reading M107, compound at 10 (head suffix _10)) was 2.747 and the “Th-T fluorescence … (Fig. 7a)” value (reading M107, compound at 20 (head suffix _20)) was 2.1149. For the same compound, the “Th-T fluorescence … (Fig. 7a)” value (reading M107, compound at 50 (head suffix _50)) was 1.42, the “Th-T fluorescence … (Fig. 7a)” value (reading M108, compound at 10 (head suffix _10)) was 2.748 and the “Th-T fluorescence … (Fig. 7a)” value (reading M108, compound at 20 (head suffix _20)) was 2.099. For the same compound, the “Th-T fluorescence … (Fig. 7a)” value (reading M108, compound at 50 (head suffix _50)) was 1.438, the “Th-T fluorescence … (Fig. 7a)” value (reading M109, compound at 10 (head suffix _10)) was 2.719 and the “Th-T fluorescence … (Fig. 7a)” value (reading M109, compound at 20 (head suffix _20)) was 2.112. For the same compound, the “Th-T fluorescence … (Fig. 7a)” value (reading M109, compound at 50 (head suffix _50)) was 1.43, the “Th-T fluorescence … (Fig. 7a)” value (reading M110, compound at 10 (head suffix _10)) was 2.701 and the “Th-T fluorescence … (Fig. 7a)” value (reading M110, compound at 20 (head suffix _20)) was 2.0943. The “Th-T fluorescence … (Fig. 7a)” value (reading M110, compound at 50 (head suffix _50)) was 1.437, the “Th-T fluorescence … (Fig. 7a)” value (reading M111, compound at 10 (head suffix _10)) was 2.678 and the “Th-T fluorescence … (Fig. 7a)” value (reading M111, compound at 20 (head suffix _20)) was 2.0886. The “Th-T fluorescence … (Fig. 7a)” value (reading M111, compound at 50 (head suffix _50)) was 1.44, the “Th-T fluorescence … (Fig. 7a)” value (reading M112, compound at 10 (head suffix _10)) was 2.674 and the “Th-T fluorescence … (Fig. 7a)” value (reading M112, compound at 20 (head suffix _20)) was 2.104. The “Th-T fluorescence … (Fig. 7a)” value (reading M112, compound at 50 (head suffix _50)) was 1.449, the “Th-T fluorescence … (Fig. 7a)” value (reading M113, compound at 10 (head suffix _10)) was 2.652 and the “Th-T fluorescence … (Fig. 7a)” value (reading M113, compound at 20 (head suffix _20)) was 2.1068. For the same compound, the “Th-T fluorescence … (Fig. 7a)” value (reading M113, compound at 50 (head suffix _50)) was 1.457, the “Th-T fluorescence … (Fig. 7a)” value (reading M114, compound at 10 (head suffix _10)) was 2.644 and the “Th-T fluorescence … (Fig. 7a)” value (reading M114, compound at 20 (head suffix _20)) was 2.09. For the same compound, the “Th-T fluorescence … (Fig. 7a)” value (reading M114, compound at 50 (head suffix _50)) was 1.449, the “Th-T fluorescence … (Fig. 7a)” value (reading M115, compound at 10 (head suffix _10)) was 2.617 and the “Th-T fluorescence … (Fig. 7a)” value (reading M115, compound at 20 (head suffix _20)) was 2.12. For the same compound, the “Th-T fluorescence … (Fig. 7a)” value (reading M115, compound at 50 (head suffix _50)) was 1.466, the “Th-T fluorescence … (Fig. 7a)” value (reading M116, compound at 10 (head suffix _10)) was 2.617 and the “Th-T fluorescence … (Fig. 7a)” value (reading M116, compound at 20 (head suffix _20)) was 2.1099. For the same compound, the “Th-T fluorescence … (Fig. 7a)” value (reading M116, compound at 50 (head suffix _50)) was 1.496, the “Th-T fluorescence … (Fig. 7a)” value (reading M117, compound at 10 (head suffix _10)) was 2.5929 and the “Th-T fluorescence … (Fig. 7a)” value (reading M117, compound at 20 (head suffix _20)) was 2.13. The “Th-T fluorescence … (Fig. 7a)” value (reading M117, compound at 50 (head suffix _50)) was 1.473, the “Th-T fluorescence … (Fig. 7a)” value (reading M118, compound at 10 (head suffix _10)) was 2.576 and the “Th-T fluorescence … (Fig. 7a)” value (reading M118, compound at 20 (head suffix _20)) was 2.113. For the same compound, the “Th-T fluorescence … (Fig. 7a)” value (reading M118, compound at 50 (head suffix _50)) was 1.488, the “Th-T fluorescence … (Fig. 7a)” value (reading M119, compound at 10 (head suffix _10)) was 2.572 and the “Th-T fluorescence … (Fig. 7a)” value (reading M119, compound at 20 (head suffix _20)) was 2.161. The “Th-T fluorescence … (Fig. 7a)” value (reading M119, compound at 50 (head suffix _50)) was 1.496, the “Th-T fluorescence … (Fig. 7a)” value (reading M120, compound at 10 (head suffix _10)) was 2.541 and the “Th-T fluorescence … (Fig. 7a)” value (reading M120, compound at 20 (head suffix _20)) was 2.1524. For the same compound, the “Th-T fluorescence … (Fig. 7a)” value (reading M120, compound at 50 (head suffix _50)) was 1.517, the “Th-T fluorescence … (Fig. 7a)” value (reading M121, compound at 10 (head suffix _10)) was 2.53 and the “Th-T fluorescence … (Fig. 7a)” value (reading M121, compound at 20 (head suffix _20)) was 2.137. The “Th-T fluorescence … (Fig. 7a)” value (reading M121, compound at 50 (head suffix _50)) was 1.531, the “Th-T fluorescence … (Fig. 7a)” value (reading M122, compound at 10 (head suffix _10)) was 2.517 and the “Th-T fluorescence … (Fig. 7a)” value (reading M122, compound at 20 (head suffix _20)) was 2.124. The “Th-T fluorescence … (Fig. 7a)” value (reading M122, compound at 50 (head suffix _50)) was 1.501, the “Th-T fluorescence … (Fig. 7a)” value (reading M123, compound at 10 (head suffix _10)) was 2.493 and the “Th-T fluorescence … (Fig. 7a)” value (reading M123, compound at 20 (head suffix _20)) was 2.112. The “Th-T fluorescence … (Fig. 7a)” value (reading M123, compound at 50 (head suffix _50)) was 1.514, the “Th-T fluorescence … (Fig. 7a)” value (reading M124, compound at 10 (head suffix _10)) was 2.48 and the “Th-T fluorescence … (Fig. 7a)” value (reading M124, compound at 20 (head suffix _20)) was 2.17. The “Th-T fluorescence … (Fig. 7a)” value (reading M124, compound at 50 (head suffix _50)) was 1.559, the “Th-T fluorescence … (Fig. 7a)” value (reading M125, compound at 10 (head suffix _10)) was 2.466 and the “Th-T fluorescence … (Fig. 7a)” value (reading M125, compound at 20 (head suffix _20)) was 2.169. The “Th-T fluorescence … (Fig. 7a)” value (reading M125, compound at 50 (head suffix _50)) was 1.553, the “Th-T fluorescence … (Fig. 7a)” value (reading M126, compound at 10 (head suffix _10)) was 2.458 and the “Th-T fluorescence … (Fig. 7a)” value (reading M126, compound at 20 (head suffix _20)) was 2.184. The “Th-T fluorescence … (Fig. 7a)” value (reading M126, compound at 50 (head suffix _50)) was 1.559, the “Th-T fluorescence … (Fig. 7a)” value (reading M127, compound at 10 (head suffix _10)) was 2.439 and the “Th-T fluorescence … (Fig. 7a)” value (reading M127, compound at 20 (head suffix _20)) was 2.22. The “Th-T fluorescence … (Fig. 7a)” value (reading M127, compound at 50 (head suffix _50)) was 1.57, the “Th-T fluorescence … (Fig. 7a)” value (reading M128, compound at 10 (head suffix _10)) was 2.428 and the “Th-T fluorescence … (Fig. 7a)” value (reading M128, compound at 20 (head suffix _20)) was 2.151. The “Th-T fluorescence … (Fig. 7a)” value (reading M128, compound at 50 (head suffix _50)) was 1.57, the “Th-T fluorescence, mean of three wells” value (time-course reading M97) was 2.083 and the “Th-T fluorescence, mean of three wells” value (time-course reading M98) was 2.088. For the same compound, the “Th-T fluorescence, mean of three wells” value (time-course reading M99) was 2.073, the “Th-T fluorescence, mean of three wells” value (time-course reading M100) was 2.078 and the “Th-T fluorescence, mean of three wells” value (time-course reading M101) was 2.074. The “Th-T fluorescence, mean of three wells” value (time-course reading M102) was 2.082, the “Th-T fluorescence, mean of three wells” value (time-course reading M103) was 2.066 and the “Th-T fluorescence, mean of three wells” value (time-course reading M104) was 2.071. For the same compound, the “Th-T fluorescence, mean of three wells” value (time-course reading M105) was 2.058, the “Th-T fluorescence, mean of three wells” value (time-course reading M106) was 2.067 and the “Th-T fluorescence, mean of three wells” value (time-course reading M107) was 2.067. For the same compound, the “Th-T fluorescence, mean of three wells” value (time-course reading M108) was 2.064, the “Th-T fluorescence, mean of three wells” value (time-course reading M109) was 2.047 and the “Th-T fluorescence, mean of three wells” value (time-course reading M110) was 2.071. For the same compound, the “Th-T fluorescence, mean of three wells” value (time-course reading M111) was 2.087, the “Th-T fluorescence, mean of three wells” value (time-course reading M112) was 2.064 and the “Th-T fluorescence, mean of three wells” value (time-course reading M113) was 2.068. For the same compound, the “Th-T fluorescence, mean of three wells” value (time-course reading M114) was 2.053, the “Th-T fluorescence, mean of three wells” value (time-course reading M115) was 2.069 and the “Th-T fluorescence, mean of three wells” value (time-course reading M116) was 2.057.
